Test results reported in the supplement of paper PMC4858399.

Tests used:
Conditions in all cases: exposure time 48 h
[1] = tested on: Caenorhabditis elegans N2; experiment: lowest effective concentration for larval growth inhibition (size below effect threshold); higher = less potent
Summary of the method: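 Worm size was taken as per-worm extinction on the Biosort, log-transformed and turned into well means. The larvae (C. elegans N2, L1 stage, 50 per 96-well) had spent 48 h at 20°C in K-medium with killed bacteria, 1% DMSO and 0.5, 1, 5, 10, 50, 100 or 200 µM chemical. The lowest effective concentration marks the first dose where the plate-adjusted mean size drops under a cutoff and remains under it at every higher dose; the cutoff is 5.665.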

[2] = tested on: Caenorhabditis elegans N2; experiment: AC50 for larval growth inhibition (Hill fit); higher = less potent
Summary of the method: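 Synchronised C. elegans N2 L1 larvae (50 per well, 96-well plates) were grown for 48 h at 20°C in K-medium with killed OP50, 1% DMSO and 0.5–200 µM chemical. The COPAS Biosort measured each worm's size as extinction, which was log-transformed and averaged per well. AC50 came from a constrained Hill fit by weighted genetic-algorithm regression on wells with at least 10 worms. Out-of-range values are censored.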

[3] = tested on: Caenorhabditis elegans N2; experiment: mean nematode size ln(EXT) after 48 h, plate-adjusted (DMSO control set to 6) (ln(EXT), control-adjusted); higher = larger nematodes / less growth inhibition
Summary of the method: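 Each treatment used 4–6 wells of 50 synchronised C. elegans N2 L1 larvae, kept for 48 h at 20°C in K-medium with killed OP50, 1% DMSO and 0.5–200 µM chemical. Debris was excluded by a growth model after the Biosort measured per-worm extinction. Mean size per well came from natural-logged values and was plate-adjusted. That adjustment subtracted the vehicle control mean and then added 6.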

| Structure (SMILES) | lowest effective concentration [1] [µM] | AC50 for larval growth inhibition [2] [µM] | mean nematode size ln(EXT) (ln) ([3]; 0.5 µM) | mean nematode size ln(EXT) (ln) ([3]; 1 µM) | mean nematode size ln(EXT) (ln) ([3]; 5 µM) | mean nematode size ln(EXT) (ln) ([3]; 10 µM) | mean nematode size ln(EXT) (ln) ([3]; 50 µM) | mean nematode size ln(EXT) (ln) ([3]; 100 µM) | mean nematode size ln(EXT) (ln) ([3]; 200 µM) |
| --- | --- | --- | --- | --- | --- | --- | --- | --- | --- |
| O=C(CCl)c1ccccc1 [2-Chloroacetophenone] | 200 | > 200 | 5.82 | 5.84 | 5.82 | 5.48 | 5.82 | 5.8 | 4.95 |
| Cc1ccccc1Cl [2-Chlorotoluene] | 200 | 178 | 6.08 | 6.06 | 5.92 | 6.02 | 5.98 | 6.04 | 3.3 |
| CCCCCCCCOc1ccc(C(=O)c2ccccc2)c(O)c1 [2-Hydroxy-4-(octyloxy)benzophenone] | 50 | 19.2 | 5.91 | 5.98 | 5.92 | 5.95 | 5.61 | 5.56 | 5.64 |
| O=C(O)CC(O)C(=O)O (centres undefined) [2-Hydroxybutanedioic acid] | 100 | > 200 | 5.83 | 5.82 | 5.8 | 5.81 | 5.83 | 5.61 | 5.58 |
| Sc1nc2ccccc2s1 [2-Mercaptobenzothiazole] | 100 | > 200 | 5.83 | 5.81 | 5.8 | 5.76 | 5.69 | 5.59 | 5.57 |
| Nc1ccc2ccccc2c1 [2-Naphthylamine] | 200 | > 200 | 6 | 5.76 | 5.94 | 5.72 | 5.71 | 5.89 | 5.51 |
| Oc1ccccc1-c1ccccc1 [2-Phenylphenol] | 200 | 179 | 5.84 | 5.73 | 5.68 | 5.99 | 6.05 | 5.96 | 5.13 |
| CCc1ccc(O)c(C(C)(C)C)c1 [2-tert-Butyl-4-ethylphenol] | 50 | > 200 | 5.77 | 5.75 | 5.72 | 5.86 | 5.45 | 5.58 | 4.88 |
| COc1ccc(O)c(C(C)(C)C)c1 [2-tert-Butyl-4-methoxy-phenol] | 200 | > 200 | 5.78 | 5.98 | 5.87 | 5.84 | 5.94 | 5.8 | 5.54 |
| Cc1ccc(C(C)(C)C)c(O)c1 [2-tert-Butyl-5-methylphenol] | 200 | > 200 | 6.07 | 6.05 | 6.02 | 6.06 | 5.95 | 5.91 | 4.77 |
| CC(C)(C)c1ccccc1O [2-tert-Butylphenol] | 200 | > 200 | 5.96 | 5.94 | 5.97 | 5.92 | 5.81 | 5.81 | 4.94 |
| CC(C)(c1cc(Br)c(O)c(Br)c1)c1cc(Br)c(O)c(Br)c1 [3,3',5,5'-Tetrabromobisphenol A] | 10 | 28.3 | 5.84 | 5.92 | 5.93 | 5.56 | 4.75 | 4.36 | 4.27 |
| C=C(C)C(=O)OCCC(F)(F)C(F)(F)C(F)(F)C(F)(F)C(F)(F)C(F)(F)F [3,3,4,4,5,5,6,6,7,7,8,8,8-Tridecafluorooctyl methacrylate] | 50 | 23 | 5.88 | 5.84 | 5.84 | 5.73 | 5.6 | 5.45 | 5.57 |
| O=C(Nc1ccc(Cl)cc1)Nc1ccc(Cl)c(Cl)c1 [3,4,4'-Trichlorocarbanilide] | ≤ 0.5 | 0.964 | 5.51 | 4.97 | 4.28 | 4.21 | 4.26 | 4.1 | 3.81 |
| Oc1ccc2c(c1)-c1ccccc1C2 [3-Hydroxyfluorene] | 50 | 97.8 | 5.81 | 5.96 | 5.84 | 5.97 | 5.6 | 4.66 | 3.77 |
| CCCCNC(=O)OCC#CI [3-Iodo-2-propynylbutylcarbamate] | 100 | 101 | 6.05 | 5.98 | 6.06 | 6.03 | 5.84 | 4.8 | 3.17 |
| Cc1cccc(N)c1N [3-Methylbenzene-1,2-diamine] | 200 | > 200 | 6.01 | 5.93 | 5.87 | 5.79 | 5.78 | 5.79 | 5.05 |
| N#Cc1cccnc1 [3-Pyridinecarbonitrile] | 5 | 18.2 | 5.73 | 5.78 | 5.61 | 5.65 | 5.65 | 5.65 | 5.54 |
| Nc1ccc(Cc2ccc(N)cc2)cc1 [4,4'-Methylenedianiline] | 200 | > 200 | 5.98 | 5.73 | 5.91 | 5.78 | 5.87 | 5.92 | 5.53 |
| Nc1ccc(Oc2ccc(N)cc2)cc1 [4,4'-Oxydianiline] | 200 | > 200 | 5.84 | 5.87 | 5.84 | 5.83 | 5.54 | 5.83 | 5.39 |
| CN(C)c1ccc(Cc2ccc(N(C)C)cc2)cc1 [4,4'-methylenebis(N,N-dimethylaniline)] | 100 | 66.3 | 5.92 | 5.8 | 5.81 | 5.86 | 5.74 | 5.17 | 5.04 |
| C=CCc1cc(S(=O)(=O)c2ccc(O)c(CC=C)c2)ccc1O [4,4'-sulfonylbis[2-(prop-2-en-1-yl)phenol]] | 50 | 190 | 5.87 | 5.88 | 5.9 | 5.89 | 5.39 | 5.1 | 4.49 |
| CC(c1ccc(O)cc1)(c1ccc(O)cc1)c1ccc(O)cc1 [4,4’,4"-Ethane-1,1,1-triyltriphenol] | 100 | 79.3 | 5.76 | 6.01 | 5.91 | 5.91 | 5.87 | 5.39 | 5.19 |

| Structure (SMILES) | lowest effective concentration [1] [µM] | AC50 for larval growth inhibition [2] [µM] | mean nematode size ln(EXT) (ln) ([3]; 0.5 µM) | mean nematode size ln(EXT) (ln) ([3]; 1 µM) | mean nematode size ln(EXT) (ln) ([3]; 5 µM) | mean nematode size ln(EXT) (ln) ([3]; 10 µM) | mean nematode size ln(EXT) (ln) ([3]; 50 µM) | mean nematode size ln(EXT) (ln) ([3]; 100 µM) | mean nematode size ln(EXT) (ln) ([3]; 200 µM) |
| --- | --- | --- | --- | --- | --- | --- | --- | --- | --- |
| CC(C)(C)CC(C)(C)c1ccc(O)cc1 [4-(1,1,3,3-Tetramethylbutyl)phenol] | 50 | 101 | 6.09 | 6.01 | 6.04 | 5.97 | 5.53 | 4.62 | 3.54 |
| CCC(C)(C)c1ccc(O)cc1 [4-(2-methylbutan-2-yl)phenol] | 200 | > 200 | 5.8 | 5.81 | 5.74 | 5.76 | 5.75 | 5.92 | 4.97 |
| CCC(C)c1ccc(O)cc1 (centres undefined) [4-(Butan-2-yl)phenol] | 200 | 142 | 6.03 | 6.09 | 6.07 | 6.08 | 6.05 | 6.02 | 5.52 |
| Nn1cnnc1 [4-Amino-4H-1,2,4-triazole] | 200 | > 200 | 5.81 | 5.85 | 5.83 | 5.8 | 5.57 | 5.78 | 5.36 |
| Nc1ccc(N=Nc2ccccc2)cc1 [4-Aminoazobenzene] | 5 | 31.4 | 5.63 | 5.75 | 5.62 | 5.49 | 4.06 | 3.92 | 3.23 |
| Nc1ccc(S(=O)(=O)c2ccc(N)cc2)cc1 [4-Aminophenyl sulfone] | 200 | > 200 | 5.93 | 5.92 | 5.94 | 5.86 | 5.83 | 5.8 | 5.56 |
| Nc1ccc(Cl)cc1N [4-Chloro-o-phenylenediamine] | 50 | 39 | 5.89 | 5.85 | 5.91 | 5.85 | 5.36 | 5.03 | 5.01 |
| Clc1ccc(C(Cl)(Cl)Cl)cc1 [4-Chlorobenzotrichloride] | 50 | 112 | 5.94 | 5.93 | 5.97 | 5.9 | 5.65 | 4.93 | 3.11 |
| Cc1ccc(Cl)cc1 [4-Chlorotoluene] | 100 | > 200 | 5.8 | 5.74 | 5.72 | 5.77 | 5.8 | 5.63 | 5.37 |
| CC(C)(c1ccccc1)c1ccc(O)cc1 [4-Cumylphenol] | 100 | 110 | 6.04 | 5.96 | 5.97 | 5.84 | 5.92 | 5.3 | 4.34 |
| CCCCCCCCCCCCc1ccc(S(=O)(=O)O)cc1 [4-Dodecylbenzenesulfonic acid] | ≤ 0.5 | 27.5 | 5.45 | 5.6 | 5.55 | 5.63 | 4.03 | 3.77 | 3.53 |
| CCCCCCc1ccc(O)cc1O [4-Hexylresorcinol] | 50 | 181 | 6 | 5.89 | 5.83 | 5.84 | 5.6 | 5.03 | 4.47 |
| O=C(O)c1ccc([N+](=O)[O-])cc1 [4-Nitrobenzoic acid] | 200 | > 200 | 6 | 5.57 | 5.86 | 5.85 | 5.77 | 5.91 | 5.53 |
| O=C(Oc1ccc(Br)cc1)N1CCN2CCC1CC2 [4-bromophenyl 1,4-diazabicyclo[3.2.2]nonane-4-carboxylate] | 50 | > 200 | 5.84 | 5.83 | 5.81 | 5.83 | 5.65 | 5.6 | 5.33 |
| Cn1sc(Cl)cc1=O [5-Chloro-2-methyl-3(2H)-isothiazolone] | 200 | > 200 | 5.96 | 5.93 | 5.95 | 6 | 5.9 | 5.82 | 5.55 |
| O=c1[nH]cc(F)c(=O)[nH]1 [5-Fluorouracil] | 50 | 162 | 5.8 | 5.84 | 5.91 | 5.82 | 5.63 | 5.3 | 4.19 |
| CCCCCCCC1CCC(=O)O1 (centres undefined) [5-Heptyldihydro-2(3H)-furanone] | 200 | 182 | 5.94 | 5.81 | 5.79 | 5.79 | 5.76 | 5.87 | 4.09 |
| NC(=O)N/N=C/c1ccc([N+](=O)[O-])o1 [5-Nitro-2-furaldehyde semicarbazone] | 50 | > 200 | 5.78 | 5.76 | 5.75 | 5.76 | 5.65 | 5.61 | 5.24 |
| CC(C)c1cccc(C(C)C)c1N1C(=O)c2ccc(O)cc2C1=O [5HPP-33] | 50 | 58.6 | 5.78 | 5.75 | 5.75 | 5.76 | 5.62 | 4.88 | 4.78 |
| Cc1ccc2ncccc2c1 [6-Methylquinoline] | 200 | > 200 | 5.98 | 5.83 | 5.87 | 5.76 | 5.74 | 5.67 | 5.52 |
| Cc1c2ccccc2c(C)c2c1ccc1ccccc12 [7,12-Dimethylbenz(a)anthracene] | 5 | 110 | 6.05 | 5.87 | 5.53 | 5.48 | 5.02 | 4.89 | 4 |
| Oc1cccc2cccnc12 [8-Hydroxyquinoline] | 200 | > 200 | 5.89 | 5.92 | 5.91 | 5.83 | 5.78 | 5.72 | 5.56 |
| Oc1cc2ccccc2c2ccccc12 [9-Phenanthrol] | 50 | 119 | 5.85 | 5.85 | 5.84 | 5.72 | 5.41 | 4.71 | 4.03 |
